Where two headings read alike, the source gives them in different places.
What was measured:
[1] = Relative solubility by turbidity threshold concentration in aqueous buffers (pH 1.5, 4.5, 6.8, 7.4); assay type: physicochemical; details: for turbidity threshold (L, M, H) 1.4: pH 1.4 [sic] (method: SGF pH 1.5); for turbidity threshold (L, M, H) 4.5: pH 4.5 (SIF); for turbidity threshold (L, M, H) 6.8: pH 6.8 (SIF); for turbidity threshold (L, M, H) 7.4: pH 7.4 (HEPES)
How it was run: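 Solubility class (high >250 μM, moderate 31.3–250 μM, low <31.3 μM) comes from the concentration where absorbance reaches a 0.01 threshold, averaged across 490/535/650 nm. Samples were compound dilutions from DMSO stock, 1 μL into 99 μL buffer at pH 1.5, 4.5, 6.8 or 7.4.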

CYP2C19 = CYP2C19 (Homo sapiens (Human), UniProt P33261); assay: CYP enzyme inhibition, fluorescent substrate (CEC); details: read-out: Cyp IC50 2C19; CYP2C19, substrate CEC
Chain of CYP2C19 (P33261 whole entry): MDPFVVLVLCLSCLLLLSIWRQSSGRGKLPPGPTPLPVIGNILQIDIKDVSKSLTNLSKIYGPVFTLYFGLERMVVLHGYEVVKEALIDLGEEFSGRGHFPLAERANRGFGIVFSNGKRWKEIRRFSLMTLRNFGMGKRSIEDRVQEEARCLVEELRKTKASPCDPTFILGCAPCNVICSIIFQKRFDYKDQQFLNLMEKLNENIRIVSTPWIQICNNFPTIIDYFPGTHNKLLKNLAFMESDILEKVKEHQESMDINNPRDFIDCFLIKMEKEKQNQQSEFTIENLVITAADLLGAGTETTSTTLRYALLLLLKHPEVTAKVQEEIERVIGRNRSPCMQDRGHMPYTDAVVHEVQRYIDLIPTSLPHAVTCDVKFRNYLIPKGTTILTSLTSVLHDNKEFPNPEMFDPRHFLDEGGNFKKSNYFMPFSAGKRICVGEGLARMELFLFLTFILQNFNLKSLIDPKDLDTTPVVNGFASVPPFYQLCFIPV
How it was run: (§1)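 10-pt 1:1 serial dilution in co-factor mix (DMSO stock 100 mM); 10 min preincubation, 37 °C; reaction at 37 °C. Readout: fluorescent metabolite of probe substrate. IC50 from signal vs [compound].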

CYP2D6 = CYP2D6 (Homo sapiens (Human), UniProt P10635); assay: CYP enzyme inhibition, fluorescent substrate (AMMC); assay type: in vitro ADME; details: read-out: Cyp IC50 2D6
Chain of CYP2D6 (P10635 whole entry): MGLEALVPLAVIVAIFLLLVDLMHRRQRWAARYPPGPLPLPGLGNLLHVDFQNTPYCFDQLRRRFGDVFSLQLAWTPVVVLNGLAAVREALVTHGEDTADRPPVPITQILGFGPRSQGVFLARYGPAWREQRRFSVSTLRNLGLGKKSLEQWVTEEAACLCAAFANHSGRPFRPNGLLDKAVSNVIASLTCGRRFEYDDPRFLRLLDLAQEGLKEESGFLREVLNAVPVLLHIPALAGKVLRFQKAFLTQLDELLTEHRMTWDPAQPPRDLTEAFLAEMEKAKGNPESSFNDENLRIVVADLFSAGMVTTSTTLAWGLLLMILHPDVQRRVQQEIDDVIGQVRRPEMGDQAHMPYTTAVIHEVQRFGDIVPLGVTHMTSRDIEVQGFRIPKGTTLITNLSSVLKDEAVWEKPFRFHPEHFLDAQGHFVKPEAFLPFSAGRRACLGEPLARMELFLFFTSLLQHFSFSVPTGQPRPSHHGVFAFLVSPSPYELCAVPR
How it was run: (§2)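 IC50 derived from loss of fluorescent metabolite across a 10-point 1:1 dilution series. CYP2D6: 1.5 pmol enzyme, 1.5 μM AMMC, 30 min at 37 °C, 409/530 nm; CYP1A2: 0.5 pmol, 5 μM CEC, 15 min, 409/460 nm. Compounds pre-incubated 10 min in NADPH-regenerating mix.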

CYP3A4(BQ) = CYP3A4(BQ) (Homo sapiens (Human), UniProt P08684); assay: CYP enzyme inhibition, fluorescent substrate BQ; details: read-out: Cyp IC50 3A4(BQ); CYP3A4, substrate BQ
Chain of CYP3A4(BQ) (P08684 whole entry): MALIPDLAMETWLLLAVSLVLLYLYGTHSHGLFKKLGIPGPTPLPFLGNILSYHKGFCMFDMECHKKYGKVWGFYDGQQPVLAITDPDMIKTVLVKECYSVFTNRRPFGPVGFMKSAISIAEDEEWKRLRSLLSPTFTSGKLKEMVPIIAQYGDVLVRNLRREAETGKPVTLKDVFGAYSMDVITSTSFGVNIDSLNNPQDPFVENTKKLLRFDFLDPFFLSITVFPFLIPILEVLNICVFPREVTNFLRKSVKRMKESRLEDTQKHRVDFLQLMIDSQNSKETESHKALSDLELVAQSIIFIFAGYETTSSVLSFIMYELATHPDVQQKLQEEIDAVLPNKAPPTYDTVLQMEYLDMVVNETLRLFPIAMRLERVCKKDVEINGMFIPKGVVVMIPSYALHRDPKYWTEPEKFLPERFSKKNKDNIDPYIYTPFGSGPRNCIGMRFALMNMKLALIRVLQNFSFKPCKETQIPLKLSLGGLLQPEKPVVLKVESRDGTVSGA
Protocol: CYP (Cytochrome P450) enzymes are the major drug metabolizing enzymes present in the liver. The inhibition of CYP enzyme activity (IC50) for each of CYP1A2, CYP2C19, CYP2C9, CYP2D6, CYP3A4(BFC) and CYP3A4(BQ) is determined for compounds, where inhibition of metabolism of a known substrate leads to a decrease in the fluorescence of the metabolized product. The fluorescence of the product is monitored as a function of compound concentration.
Compounds are dissolved in dimethyl sulfoxide to a concentration of 100 mM. These are diluted 1 μL into 82 μL of acetonitrile. […] These are then serially diluted 1:1 (160 μL to 160 μL co-factor mix) for a total of 10 points. A 10 μL aliquot of this final mixture is dispensed into 384 well assay plates and incubated for 10 minutes at 37° C. […] Assay plates are incubated at 37° C. […] The signal versus compound concentration is used to determine the IC50. The enzymes and substrates for this assay are obtained from BD Biosciences.

CYP1A2 = CYP1A2 (Homo sapiens (Human), UniProt P05177); assay: CYP enzyme inhibition, fluorescent substrate (CEC)
Chain of CYP1A2 (P05177 whole entry): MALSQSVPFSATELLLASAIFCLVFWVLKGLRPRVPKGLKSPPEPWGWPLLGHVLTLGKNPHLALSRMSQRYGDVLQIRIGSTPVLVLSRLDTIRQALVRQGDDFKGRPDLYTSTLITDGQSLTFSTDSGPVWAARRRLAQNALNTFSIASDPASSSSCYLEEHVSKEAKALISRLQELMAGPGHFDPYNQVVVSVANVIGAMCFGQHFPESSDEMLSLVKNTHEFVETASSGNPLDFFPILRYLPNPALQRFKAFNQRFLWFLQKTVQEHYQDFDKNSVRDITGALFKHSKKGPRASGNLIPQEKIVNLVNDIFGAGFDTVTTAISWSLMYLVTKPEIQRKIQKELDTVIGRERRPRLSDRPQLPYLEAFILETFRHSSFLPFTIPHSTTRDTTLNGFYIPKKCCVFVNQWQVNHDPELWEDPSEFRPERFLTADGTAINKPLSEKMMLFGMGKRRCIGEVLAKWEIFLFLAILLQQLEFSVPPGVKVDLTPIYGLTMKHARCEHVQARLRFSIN
How it was run: as §2

CYP2C9 = CYP2C9 (Homo sapiens (Human), UniProt P11712); assay: CYP enzyme inhibition, fluorescent substrate (MFC)
Chain of CYP2C9 (P11712 whole entry): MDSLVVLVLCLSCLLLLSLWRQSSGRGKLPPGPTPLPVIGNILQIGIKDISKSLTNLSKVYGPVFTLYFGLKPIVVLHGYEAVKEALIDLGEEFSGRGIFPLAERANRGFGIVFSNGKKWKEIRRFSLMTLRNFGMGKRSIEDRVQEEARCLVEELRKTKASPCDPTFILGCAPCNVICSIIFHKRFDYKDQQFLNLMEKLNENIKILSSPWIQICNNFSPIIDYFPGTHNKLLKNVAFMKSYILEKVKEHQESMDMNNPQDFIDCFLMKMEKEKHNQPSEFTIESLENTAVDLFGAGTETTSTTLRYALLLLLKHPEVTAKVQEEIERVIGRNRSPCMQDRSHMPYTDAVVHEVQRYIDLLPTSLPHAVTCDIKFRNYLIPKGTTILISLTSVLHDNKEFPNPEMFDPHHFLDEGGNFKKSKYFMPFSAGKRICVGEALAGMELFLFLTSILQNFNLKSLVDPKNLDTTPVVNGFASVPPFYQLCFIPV
How it was run: as §1

CYP3A4(BFC) = CYP3A4(BFC) (Homo sapiens (Human), UniProt P08684); assay: CYP enzyme inhibition, fluorescent substrate BFC; details: read-out: Cyp IC50 3A4(BFC); CYP3A4, substrate BFC
Chain of CYP3A4(BFC) (P08684 whole entry): as the sequence (P08684 whole entry) above
How it was run: as §1

[2] = read-out: Cyp IC50 1A2, CYP1A2, substrate CEC
[3] = read-out: Cyp IC50 2C9, CYP2C9, substrate MFC

SMILES	IC50 (CYP2C19) [µM]	IC50 (CYP2D6) [µM]	IC50 (CYP3A4(BQ)) [µM]	IC50 (CYP2C9; [3]) [µM]	IC50 (CYP3A4(BFC)) [µM]	IC50 (CYP1A2; human, 15 min) [µM]	IC50 (CYP2C9) [µM]	turbidity threshold (L, M, H) 1.4 [1]	turbidity threshold (L, M, H) 4.5 [1]	turbidity threshold (L, M, H) 6.8 [1]	turbidity threshold (L, M, H) 7.4 [1]	IC50 (CYP1A2; [2]) [µM]
CC(C)Nc1ncnc2[nH]cc(C(=O)c3c(F)ccc(NS(=O)(=O)c4ccccc4F)c3F)c12 [P-1073, N-[2,4-Difluoro-3-(4-isopropylamino-7H-pyrrolo[2,3-d]pyrimidine-5-carbonyl)-phenyl]-2-fluoro-benzenesulfonamide]	> 10	> 10	> 10	> 10	> 10	–	–	M (moderate solubility if the threshold concentration is 31.3 μM to 250 μM)	L (low solubility if the threshold concentration is <31.3 μM)	L (low solubility if the threshold concentration is <31.3 μM)	L (low solubility if the threshold concentration is <31.3 μM)	> 10
CCCS(=O)(=O)Nc1ccc(F)c(C(=O)c2c[nH]c3ncnc(Nc4cn(C)nc4C)c23)c1F [P-1100, Propane-1-sulfonic acid {3-[4-(1,3-dimethyl-1H-pyrazol-4-ylamino)-7H-pyrrolo[2,3-d]pyrimidine-5-carbonyl]-2,4-difluoro-phenyl}-amide]	> 10	> 10	> 10	> 10	> 10	–	–	M (moderate solubility if the threshold concentration is 31.3 μM to 250 μM)	M (moderate solubility if the threshold concentration is 31.3 μM to 250 μM)	L (low solubility if the threshold concentration is <31.3 μM)	L (low solubility if the threshold concentration is <31.3 μM)	> 10
CCCS(=O)(=O)Nc1ccc(F)c(C(=O)c2c[nH]c3ncnc(Nc4ccc(OC)cc4F)c23)c1F [P-1101, Propane-1-sulfonic acid {2,4-difluoro-3-[4-(2-fluoro-4-methoxy-phenylamino)-7H-pyrrolo[2,3-d]pyrimidine-5-carbonyl]-phenyl}-amide]	> 10	> 10	> 10	> 10	> 10	> 10	–	L (low solubility if the threshold concentration is <31.3 μM)	L (low solubility if the threshold concentration is <31.3 μM)	L (low solubility if the threshold concentration is <31.3 μM)	L (low solubility if the threshold concentration is <31.3 μM)	–
O=C(c1c(F)ccc(NS(=O)(=O)c2ccccc2F)c1F)c1c[nH]c2ncnc(NC3CC3)c12 [P-1103, N-[3-(4-Cyclopropylamino-7H-pyrrolo[2,3-d]pyrimidine-5-carbonyl)-2,4-difluoro-phenyl]-2-fluoro-benzenesulfonamide]	> 10	> 10	> 10	> 10	> 10	> 10	–	M (moderate solubility if the threshold concentration is 31.3 μM to 250 μM)	L (low solubility if the threshold concentration is <31.3 μM)	L (low solubility if the threshold concentration is <31.3 μM)	M (moderate solubility if the threshold concentration is 31.3 μM to 250 μM)	–
O=C(c1c(F)ccc(NS(=O)(=O)c2cc(F)ccc2F)c1F)c1c[nH]c2ncnc(NCC3CC3)c12 [P-1137, N-{3-[4-(Cyclopropylmethyl-amino)-7H-pyrrolo[2,3-d]pyrimidine-5-carbonyl]-2,4-difluoro-phenyl}-2,5-difluoro-benzenesulfonamide]	> 10	> 10	> 10	> 10	> 10	> 10	–	–	–	–	–	–
CCCS(=O)(=O)Nc1ccc(F)c(C(=O)c2c[nH]c3ncnc(Nc4ccc(OC)nc4)c23)c1F [P-1090, Propane-1-sulfonic acid {2,4-difluoro-3-[4-(6-methoxy-pyridin-3-ylamino)-7H-pyrrolo[2,3-d]pyrimidine-5-carbonyl]-phenyl}-amide]	> 10	> 10	> 10	> 10	> 10	> 10	–	–	–	–	–	–
CC(C)Nc1ncnc2[nH]cc(C(=O)c3c(F)ccc(NS(=O)(=O)c4cc(F)ccc4F)c3F)c12 [P-1111, N-[2,4-Difluoro-3-(4-isopropylamino-7H-pyrrolo[2,3-d]pyrimidine-5-carbonyl)-phenyl]-2,5-difluoro-benzenesulfonamide]	> 10	> 10	> 10	–	> 10	> 10	5 to 10	–	–	–	–	–
COc1cccc(Nc2ncnc3[nH]cc(C(=O)c4c(F)ccc(NS(=O)(=O)c5ccccc5F)c4F)c23)c1 [P-1149, N-{2,4-Difluoro-3-[4-(3-methoxy-phenylamino)-7H-pyrrolo[2,3-d]pyrimidine-5-carbonyl]-phenyl}-2-fluoro-benzenesulfonamide]	> 10	> 10	> 10	> 10	> 10	> 10	–	–	–	–	–	–

Further lines, with some results ahead:

IC50 (CYP2C19) [µM]	IC50 (CYP2D6) [µM]	IC50 (CYP3A4(BQ)) [µM]	IC50 (CYP2C9; [3]) [µM]	IC50 (CYP3A4(BFC)) [µM]	IC50 (CYP1A2; human, 15 min) [µM]	IC50 (CYP2C9) [µM]	SMILES	turbidity threshold (L, M, H) 1.4 [1]	turbidity threshold (L, M, H) 4.5 [1]	turbidity threshold (L, M, H) 6.8 [1]	turbidity threshold (L, M, H) 7.4 [1]	IC50 (CYP1A2; [2]) [µM]
> 10	> 10	> 10	> 10	> 10	> 10	–	Cc1nn(C)cc1Nc1ncnc2[nH]cc(C(=O)c3c(F)ccc(NS(=O)(=O)c4ccccc4F)c3F)c12 [P-1154, N-{3-[4-(1,3-Dimethyl-1H-pyrazol-4-ylamino)-7H-pyrrolo[2,3-d]pyrimidine-5-carbonyl]-2,4-difluoro-phenyl}-2-fluoro-benzenesulfonamide]	L (low solubility if the threshold concentration is <31.3 μM)	L (low solubility if the threshold concentration is <31.3 μM)	L (low solubility if the threshold concentration is <31.3 μM)	L (low solubility if the threshold concentration is <31.3 μM)	–
> 10	> 10	> 10	> 10	> 10	> 10	–	O=C(c1c(F)ccc(NS(=O)(=O)c2cc(F)ccc2F)c1F)c1c[nH]c2ncnc(NC3CC3)c12 [P-1104, N-[3-(4-Cyclopropylamino-7H-pyrrolo[2,3-d]pyrimidine-5-carbonyl)-2,4-difluoro-phenyl]-2,5-difluoro-benzenesulfonamide]	H (high solubility if the threshold concentration is >250 μm)	M (moderate solubility if the threshold concentration is 31.3 μM to 250 μM)	M (moderate solubility if the threshold concentration is 31.3 μM to 250 μM)	M (moderate solubility if the threshold concentration is 31.3 μM to 250 μM)	–
> 10	> 10	> 10	> 10	> 10	> 10	–	CCn1cc(Nc2ncnc3[nH]cc(C(=O)c4c(F)ccc(NS(=O)(=O)c5cc(F)ccc5F)c4F)c23)cn1 [P-1142, N-{3-[4-(1-Ethyl-1H-pyrazol-4-ylamino)-7H-pyrrolo[2,3-d]pyrimidine-5-carbonyl]-2,4-difluoro-phenyl}-2,5-difluoro-benzenesulfonamide]	–	–	–	–	–
> 10	> 10	> 10	> 10	> 10	> 10	–	COc1cccc(Nc2ncnc3[nH]cc(C(=O)c4c(F)ccc(NS(=O)(=O)c5cc(F)ccc5F)c4F)c23)c1 [P-1139, N-{2,4-Difluoro-3-[4-(3-methoxy-phenylamino)-7H-pyrrolo[2,3-d]pyrimidine-5-carbonyl]-phenyl}-2,5-difluoro-benzenesulfonamide]	–	–	–	–	–

Source: patent US9617267B2, “Compounds and methods for kinase modulation, and indications therefor” (Plexxikon Inc., priority 2009, dated 2017)
